Data reported in PubChem BioAssay (NCI).
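Method: 48-hour compound exposure of cells in 96-well plates, five concentrations, linear interpolation of endpoints. TGI: total growth inhibition.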

Tests used:
Test in all cases: NCI-60 cell line screen, 48 h
LOX IMVI melanoma = tested on: LOX IMVI melanoma
BT-549 breast = tested on: BT-549 breast
786-0 renal = tested on: 786-0 renal
A498 renal = tested on: A498 renal
U251 CNS = tested on: U251 CNS
ACHN renal = tested on: ACHN renal
MDA-N = tested on: MDA-N
OVCAR-5 ovarian = tested on: OVCAR-5 ovarian
RPMI-8226 leukemia = tested on: RPMI-8226 leukemia
HT29 colon = tested on: HT29 colon
PC-3 prostate = tested on: PC-3 prostate
RXF 393 renal = tested on: RXF 393 renal
UACC-257 melanoma = tested on: UACC-257 melanoma
A549 NSCLC = tested on: A549 NSCLC
IGROV1 ovarian = tested on: IGROV1 ovarian
SNB-75 CNS = tested on: SNB-75 CNS
NCI/ADR-RES ovarian = tested on: NCI/ADR-RES ovarian
UO-31 renal = tested on: UO-31 renal
HL-60(TB) leukemia = tested on: HL-60(TB) leukemia
HS 578T breast = tested on: HS 578T breast
SN12C renal = tested on: SN12C renal
SF-268 CNS = tested on: SF-268 CNS
SK-OV-3 ovarian = tested on: SK-OV-3 ovarian
HOP-62 NSCLC = tested on: HOP-62 NSCLC
MCF7 breast = tested on: MCF7 breast
NCI-H226 lung = tested on: NCI-H226 lung
SK-MEL-2 melanoma = tested on: SK-MEL-2 melanoma
SW-620 colon = tested on: SW-620 colon
CCRF-CEM leukemia = tested on: CCRF-CEM leukemia
T-47D breast = tested on: T-47D breast
OVCAR-3 ovarian = tested on: OVCAR-3 ovarian
OVCAR-8 ovarian = tested on: OVCAR-8 ovarian
NCI-H460 lung = tested on: NCI-H460 lung
SK-MEL-28 melanoma = tested on: SK-MEL-28 melanoma
SF-295 CNS = tested on: SF-295 CNS
CAKI-1 renal = tested on: CAKI-1 renal
UACC-62 melanoma = tested on: UACC-62 melanoma
NCI-H23 lung = tested on: NCI-H23 lung
MDA-MB-231 breast = tested on: MDA-MB-231 breast
HOP-92 NSCLC = tested on: HOP-92 NSCLC
COLO 205 colon = tested on: COLO 205 colon
OVCAR-4 ovarian = tested on: OVCAR-4 ovarian
SK-MEL-5 melanoma = tested on: SK-MEL-5 melanoma
HCT-15 colon = tested on: HCT-15 colon
EKVX NSCLC = tested on: EKVX NSCLC
M14 melanoma = tested on: M14 melanoma
MOLT-4 leukemia = tested on: MOLT-4 leukemia
SF-539 CNS = tested on: SF-539 CNS
MALME-3M melanoma = tested on: MALME-3M melanoma
SNB-19 CNS = tested on: SNB-19 CNS
KM12 colon = tested on: KM12 colon
K-562 leukemia = tested on: K-562 leukemia
MDA-MB-435 = tested on: MDA-MB-435
SR leukemia = tested on: SR leukemia
TK-10 renal = tested on: TK-10 renal
DU-145 prostate = tested on: DU-145 prostate
HCT-116 colon = tested on: HCT-116 colon
NCI-H522 lung = tested on: NCI-H522 lung

Measured: TGI

NC(=S)N/N=C/c1c[nH]c2ccccc12
> 100 µM: LOX IMVI melanoma | BT-549 breast | 786-0 renal | A498 renal | U251 CNS | ACHN renal | MDA-N | OVCAR-5 ovarian | RPMI-8226 leukemia | HT29 colon | PC-3 prostate | RXF 393 renal | UACC-257 melanoma | A549 NSCLC | IGROV1 ovarian | SNB-75 CNS | NCI/ADR-RES ovarian | UO-31 renal | HL-60(TB) leukemia | HS 578T breast | SN12C renal | SF-268 CNS | SK-OV-3 ovarian | HOP-62 NSCLC | MCF7 breast | NCI-H226 lung | SK-MEL-2 melanoma | SW-620 colon | CCRF-CEM leukemia | T-47D breast | OVCAR-3 ovarian | OVCAR-8 ovarian | NCI-H460 lung | SK-MEL-28 melanoma | SF-295 CNS | CAKI-1 renal | UACC-62 melanoma | NCI-H23 lung | MDA-MB-231 breast | HOP-92 NSCLC | COLO 205 colon | OVCAR-4 ovarian | SK-MEL-5 melanoma | HCT-15 colon | EKVX NSCLC | M14 melanoma | MOLT-4 leukemia | SF-539 CNS | MALME-3M melanoma | SNB-19 CNS | KM12 colon | K-562 leukemia | MDA-MB-435 | SR leukemia | TK-10 renal | DU-145 prostate | HCT-116 colon | NCI-H522 lung
